TGI and GI50 data for 22 compounds are collected here from PubChem BioAssay (NCI).

For orientation: TGI means the concentration at which net growth stops. Low readings indicate greater sensitivity of the cells, high ones lower sensitivity of the cells. What is called GI50 is the concentration that inhibits growth by half.

Test systems include KM20L2 colon; RXF-631 renal; DLD-1 colon; HOP-18 NSCLC; LXFL 529 NSCLC; DMS 273 small cell lung; XF 498 CNS; MDA-N; DMS 114 small cell lung.
Experiment in all cases: DTP human tumour cell line panel, 48 h

Structures are written as SMILES. Where “and” joins values, the source holds several entries; their conditions need not be identical. Equal entries are not always repeated.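 Five compound concentrations were applied to cells in 96-well plates for 48 hours; endpoints were derived by simple linear interpolation of the resulting dose-response curve. GI50 marks 50% less growth. TGI denotes the concentration required for complete inhibition of growth.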

As for `CC(=O)CC(=O)CCCC(=O)Nc1ccc(Cl)cc1Cl`, the total growth inhibition concentration (TGI) in the assay with KM20L2 colon, in the assay on RXF-631 renal, in the assay on DLD-1 colon, in the assay on HOP-18 NSCLC, with LXFL 529 NSCLC and in the assay on DMS 273 small cell lung was above 100 µM each time. Further, the TGI with XF 498 CNS is above 100 µM.

Regarding `O=C1c2cccnc2-c2nc(-c3ccccn3)cc3c2c1nc1ccccc13`, in the assay on MDA-N, the GI50 was 0.259 µM and the TGI was found to be 1.25 µM.

The compound `CCOC(=O)c1[nH]c2cccc3c2c1CC(Br)C3=O` (stereo unspecified) showed a TGI in the assay with MDA-N of 24.9 µM.

`N#CC12CCC(O)C(CC1)C2=O` (stereo unspecified): the TGI in the assay on KM20L2 colon was above 100 µM; with RXF-631 renal it was above 100 µM; in the assay on DLD-1 colon, above 100 µM; with HOP-18 NSCLC, above 100 µM; with DMS 114 small cell lung, 36 µM; in the assay with DMS 273 small cell lung, above 100 µM. This compound came in with a TGI in the assay with XF 498 CNS above 100 µM.

`O=C(O)CSCC(=O)c1ccccc1` returned a TGI in the assay on MDA-N above 100 µM.

Turning to `O=NN(CCCl)C(=O)NCc1ccc[n+]([O-])c1`, the TGI with KM20L2 colon, in the assay with RXF-631 renal, with DLD-1 colon, with LXFL 529 NSCLC, in the assay with DMS 114 small cell lung and with XF 498 CNS was above 100 µM each time.

Turning to `CC1(c2ccccc2)CC12C(=O)NC(=O)NC2=O` (stereo unspecified), the total growth inhibition concentration (TGI) with KM20L2 colon, in the assay with DLD-1 colon, with LXFL 529 NSCLC, in the assay on DMS 114 small cell lung, with DMS 273 small cell lung and with XF 498 CNS was above 100 µM throughout.

As for `O=C1C2c3[nH]c4ccccc4c3C3CCSCC3C2C(=O)N1c1ccccc1` (stereo unspecified), the TGI in the assay on KM20L2 colon, with DLD-1 colon, with LXFL 529 NSCLC, with DMS 273 small cell lung and in the assay on XF 498 CNS was above 100 µM each time.

Regarding `CCCOP1(=O)C=C(C)C(Cl)=C(C)C1` (stereo unspecified), the TGI with KM20L2 colon is 88.8 µM; in the assay with RXF-631 renal, above 100 µM; in the assay on DLD-1 colon, 96.3 µM; in the assay with HOP-18 NSCLC, above 100 µM; in the assay with LXFL 529 NSCLC, 42.9 µM; in the assay on DMS 114 small cell lung, 46.3 µM. Besides, the TGI in the assay on DMS 273 small cell lung is 36.7 µM; in the assay with XF 498 CNS, 31.4 µM.

For `N.N.NCCCCN.O=C([O-])CC(=O)[O-].O=C([O-])CC(=O)[O-].[Pt+4].[Pt+4]`, the GI50 in the assay on KM20L2 colon was above 100 µM; in the assay on DLD-1 colon, above 100 µM; in the assay on HOP-18 NSCLC, above 100 µM; in the assay on LXFL 529 NSCLC it was above 100 µM; in the assay on DMS 273 small cell lung it was 89.2 µM. Moreover, the TGI in the assay on KM20L2 colon, in the assay with DLD-1 colon, in the assay on HOP-18 NSCLC, with LXFL 529 NSCLC and with DMS 273 small cell lung was above 100 µM in each case.

For the compound `Cc1c2ncccc2c(C)c2c1[nH]c1ccc(O)cc12`, in the assay with MDA-N, the GI50 is 9.69 µM; the TGI is 17.9 µM and 47.5 µM.

With `COCC1N=C(c2ccc(OC)c(OCc3ccccc3)c2OC)O[C@H]1c1ccccc1` (stereo partly specified), the total growth inhibition concentration (TGI) with KM20L2 colon is 41.1 µM; in the assay on DLD-1 colon, above 100 µM; with LXFL 529 NSCLC, 65 µM; in the assay on DMS 114 small cell lung, 44.9 µM; with DMS 273 small cell lung, 38.6 µM.

For `C=C1C(=O)OC2C1C(OC(=O)/C(C)=C/C)CC(O)(CCl)C1C(OC(C)=O)C=C(C)C21O` (stereo unspecified), the TGI in the assay with MDA-N was 41.8 µM. In other words, the double-digit micromolar range.

As for `CC1=C2C(=CC(C)(CO)C2O)C(=O)C(C)(O)C12CC2` (stereo unspecified), the TGI in the assay on KM20L2 colon amounted to 0.0137 µM; with RXF-631 renal, 0.0359 µM; with DLD-1 colon, 0.0738 µM; in the assay on HOP-18 NSCLC, 0.0331 µM; with LXFL 529 NSCLC, 0.0292 µM; with DMS 114 small cell lung, 0.00769 µM. The TGI in the assay with DMS 273 small cell lung is 0.00892 µM.

Turning to `N#C[C@]12CC3(CC[C@H]1CC1(C2)OCCO1)OCCO3`, the concentration for total growth inhibition (TGI) with KM20L2 colon, in the assay on RXF-631 renal, with DLD-1 colon, in the assay with HOP-18 NSCLC, with LXFL 529 NSCLC and in the assay with DMS 114 small cell lung was above 100 µM each time. In addition, the TGI with DMS 273 small cell lung was above 100 µM.

Regarding `Nc1ccc(CCN2CCN(c3cccc(C(F)(F)F)c3)CC2)cc1`, the TGI in the assay with KM20L2 colon, with RXF-631 renal, with DLD-1 colon, in the assay with HOP-18 NSCLC, in the assay on LXFL 529 NSCLC and in the assay on DMS 114 small cell lung was above 100 µM each time. In the assay with XF 498 CNS, this compound had a TGI above 100 µM.

Turning to `CC(C)SC1SCC2C(=O)N(C)C3(CC3C)C(=O)OCC(NC(=O)c3nc4ccccc4cc3O)C(=O)NC(C)C(=O)N(C)C1C(=O)N(C)C1(CC1C)C(=O)OCC(NC(=O)c1nc3ccccc3cc1O)C(=O)NC(C)C(=O)N2C` (stereo unspecified), the concentration for total growth inhibition (TGI) in the assay on MDA-N is below 0.0001 µM.

Consider `CCC12CCC(O)C1N(C)CCC2Sc1ccccc1` (stereo unspecified), for which the TGI in the assay on KM20L2 colon, with RXF-631 renal, in the assay on HOP-18 NSCLC, in the assay with DMS 114 small cell lung, in the assay with DMS 273 small cell lung and in the assay on XF 498 CNS was above 100 µM in each case.

Consider `O=C(O)C(Cc1ccccc1-c1ccccc1)C(=O)O`, for which the TGI in the assay on MDA-N is above 100 µM.

The compound `Nc1nc(SCC(=O)O)[nH]c(=O)c1N` gave a TGI with MDA-N above 100 µM.

Take `C=CC[P@@]1(=O)O[C@H](c2ccccc2)C(C)N1C(C)C` (stereo partly specified): the TGI in the assay on RXF-631 renal, in the assay with DLD-1 colon, in the assay on HOP-18 NSCLC, with LXFL 529 NSCLC, in the assay on DMS 114 small cell lung and with DMS 273 small cell lung was above 100 µM throughout. Also, the TGI in the assay with XF 498 CNS is above 100 µM.

Turning to `O=[N+]([O-])c1ccc2c(c1)OCCOCCOc1ccc([N+](=O)[O-])cc1OCCOCCO2`, the concentration for total growth inhibition (TGI) in the assay with KM20L2 colon, in the assay with DMS 114 small cell lung and with DMS 273 small cell lung was above 100 µM in each case.
